Literature values as cited in article PMC1657008, “Rotavirus NSP4_114-135 peptide has no direct, specific effect on chloride transport in rabbit brush-border membrane” (Virology Journal, 2006).

System: neonatal mouse intestinal mucosal sheets
Settings: added to neonatal mouse intestinal mucosal sheets; ref [1]
Text: However, the cellular and molecular bases by which rotavirus and NSP4 induce a moderate net chloride secretion remain unclear.

## C[N+](C)(C)CCOC(N)=O [carbachol]
  Cl- secretory currents: transient, small and almost identical increases in Cl^- secretory currents
